Patent US20240368135A1 (VERTEX PHARMACEUTICALS INCORPORATED, priority 2021, published 2024)
Read-outs that look alike come from different tables or passages of the source.

Biological target: human NaV 1.8 (Homo sapiens, UniProt Q9Y5Y9)
Test: E-VIPR assay detecting and measuring NaV inhibition properties
Type: cell-based
Settings: HEK cells expressing truncated human NaV 1.8
Procedure, shortened: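 HEK cells expressing truncated, fully active human NaV1.8, with KIR2.1 BacMam co-transduction, were loaded with CC2-DMPE/DiSBAC6(3) voltage-sensing dyes for 20 min at room temperature. Compounds were tested in 11-point 3-fold dilutions (300 nM top final), optionally with 25% human serum, under electrical stimulation with FRET read-out.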

[1] = no human serum, read-out: IC50 in the E-VIPR Assay
[2] = in the presence of human serum (compound numbers followed by *), read-out: IC50 in the E-VIPR Assay, performed in the presence of human serum

human NaV 1.8, sequence (Q9Y5Y9 126-399 limits assumed): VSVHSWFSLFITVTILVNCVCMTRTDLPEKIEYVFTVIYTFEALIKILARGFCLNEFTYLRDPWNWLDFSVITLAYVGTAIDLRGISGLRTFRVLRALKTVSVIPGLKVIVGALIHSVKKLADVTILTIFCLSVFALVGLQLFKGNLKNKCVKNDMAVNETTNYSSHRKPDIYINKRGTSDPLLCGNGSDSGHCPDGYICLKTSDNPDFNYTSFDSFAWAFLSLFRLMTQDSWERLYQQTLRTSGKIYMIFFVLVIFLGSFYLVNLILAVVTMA
human NaV 1.8, sequence (Q9Y5Y9 660-890 limits assumed): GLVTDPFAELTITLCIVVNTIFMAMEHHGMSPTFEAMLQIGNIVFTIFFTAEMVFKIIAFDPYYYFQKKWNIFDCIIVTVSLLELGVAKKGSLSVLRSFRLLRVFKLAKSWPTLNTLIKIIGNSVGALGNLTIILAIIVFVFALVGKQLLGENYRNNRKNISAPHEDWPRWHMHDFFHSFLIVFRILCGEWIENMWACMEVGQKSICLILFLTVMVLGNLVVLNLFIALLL
human NaV 1.8, sequence (Q9Y5Y9 1148-1722 limits assumed): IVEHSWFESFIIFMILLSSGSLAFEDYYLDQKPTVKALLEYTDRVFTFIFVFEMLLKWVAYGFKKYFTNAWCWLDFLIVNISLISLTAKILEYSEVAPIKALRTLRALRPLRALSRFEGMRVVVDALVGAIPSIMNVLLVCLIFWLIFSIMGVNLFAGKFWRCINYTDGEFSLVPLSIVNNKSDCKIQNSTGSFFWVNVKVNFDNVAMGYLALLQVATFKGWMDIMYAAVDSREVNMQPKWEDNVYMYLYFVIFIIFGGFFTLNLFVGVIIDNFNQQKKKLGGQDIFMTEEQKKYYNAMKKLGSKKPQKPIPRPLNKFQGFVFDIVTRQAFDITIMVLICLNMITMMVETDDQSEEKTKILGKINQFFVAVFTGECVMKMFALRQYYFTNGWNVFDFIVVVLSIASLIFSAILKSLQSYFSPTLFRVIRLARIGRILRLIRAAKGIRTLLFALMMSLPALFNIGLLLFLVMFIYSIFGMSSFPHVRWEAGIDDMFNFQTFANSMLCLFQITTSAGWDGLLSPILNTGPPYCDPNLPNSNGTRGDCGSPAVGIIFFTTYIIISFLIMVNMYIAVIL

SMILES	IC50 [1] [µM]	IC50 [2] [µM]
COc1c([C@H]2[C@H](C(=O)Nc3ccc4cnnn4c3)O[C@@](C)(C(F)(F)F)[C@H]2C)ccc(F)c1F [Compound 329, (2R,3S,4S,5R)-N-([1,2,3]triazolo[1,5-a]pyridin-6-yl)-3-(3,4-difluoro-2-methoxyphenyl)-4,5-dimethyl-5-(trifluoromethyl)-tetrahydrofuran-2-carboxamide]	< 0.01	–
COc1c([C@@H]2[C@@H](C(=O)Nc3ccc(C(=O)O)nc3)O[C@](C)(C(F)(F)F)[C@@H]2C)ccc(F)c1C(F)F (single isomer, unassigned) [Compound 177]	≥ 1	–
COc1c([C@H]2[C@H](C(=O)Nc3ccnc(C4(O)CCOC4)c3)O[C@@](C)(C(F)(F)F)[C@H]2C)ccc(F)c1F (single isomer, unassigned) [Compound 220, rel-(2R*,3S*,4S*,5R*)-3-(3,4-difluoro-2-methoxyphenyl)-N-(2-(3-hydroxy-tetrahydrofuran-3-yl)pyridin-4-yl)-4,5-dimethyl-5-(trifluoromethyl)tetrahydrofuran-2-carboxamide]	< 0.01	–
C[C@H]1[C@@H](c2ccc(F)c(F)c2OCCO)[C@H](C(=O)Nc2cnnn2C)O[C@@]1(C)C(F)(F)F [Compound 573, (2R,3S,4S,5R)-3-(3,4-difluoro-2-(2-hydroxyethoxy)phenyl)-4,5-dimethyl-N-(1-methyl-1H-1,2,3-triazol-5-yl)-5-(trifluoromethyl)tetrahydrofuran-2-carboxamide]	0.1 to 1	–
CNC(COC)c1ccc(NC(=O)[C@@H]2O[C@@](C)(C(F)(F)F)[C@@H](C)[C@H]2c2ccc(F)c(F)c2OC)cn1 (single isomer, unassigned) [Compound 414, rel-(2R*,3S*,4S*,5R*)-3-(3,4-difluoro-2-methoxyphenyl)-N-(6-(2-methoxy-1-(methylamino)ethyl)-pyridin-3-yl)-4,5-dimethyl-5-(trifluoromethyl)-tetrahydrofuran-2-carboxamide]	0.1 to 1	–
COc1c(C2C(C(=O)Nc3ccc(C(N)=O)nc3)OC(C)(C(F)(F)F)C2C)ccc(C(F)F)c1F (stereo not shown) [Compound 159, 5-[[3-[4-(difluoromethyl)-3-fluoro-2-methoxy-phenyl]-4,5-dimethyl-5-(trifluoromethyl)tetrahydrofuran-2-carbonyl]amino]pyridine-2-carboxamide]	≥ 1	–
COCC(C)(N)c1cc(NC(=O)[C@@H]2O[C@@](C)(C(F)(F)F)[C@@H](C)[C@H]2c2ccc(F)c(F)c2OC)c(F)cn1 (single isomer, unassigned) [Compound 354, rel-(2R*,3S*,4S*,5R*)-N-(2-(2-amino-1-methoxypropan-2-yl)-5-fluoropyridin-4-yl)-3-(3,4-difluoro-2-methoxyphenyl)-4,5-dimethyl-5-(trifluoromethyl)-tetrahydrofuran-2-carboxamide]	< 0.01	–
CNc1cc(NC(=O)[C@@H]2O[C@@](C)(C(F)(F)F)[C@@H](C)[C@H]2c2ccc(F)c(F)c2OC)ccn1 [Compound 387, (2R,3S,4S,5R)-3-(3,4-difluoro-2-methoxyphenyl)-4,5-dimethyl-N-(2-(methylamino)pyridin-4-yl)-5-(trifluoromethyl)tetrahydrofuran-2-carboxamide]	0.01 to 0.1	–
COCC(N)c1cc(NC(=O)[C@@H]2O[C@@](C)(C(F)(F)F)[C@@H](C)[C@H]2c2ccc(F)c(F)c2OC)ncn1 (single isomer, unassigned) [Compound 217]	0.01 to 0.1	–
C[C@H]1[C@@H](c2ccc(F)c(F)c2O[C@H]2C[C@@H](O)C2)[C@H](C(=O)Nc2cncc(F)c2)O[C@@]1(C)C(F)(F)F [Compound 660, (2R,3S,4S,5R)-3-(3,4-difluoro-2-((1S,3R)-3-hydroxycyclobutoxy)phenyl)-N-(5-fluoropyridin-3-yl)-4,5-dimethyl-5-(trifluoromethyl)tetrahydrofuran-2-carboxamide]	0.01 to 0.1	–
CNCc1cc(NC(=O)C2OC(C)(C(F)(F)F)C(C)C2c2ccc(F)c(F)c2OC)c(F)cn1 (stereo not shown) [Compound 58, 3-(3,4-difluoro-2-methoxy-phenyl)-N-[5-fluoro-2-(methylaminomethyl)-4-pyridyl]-4,5-dimethyl-5-(trifluoromethyl)tetrahydrofuran-2-carboxamide]	–	≥ 1
COc1c([C@H]2[C@H](C(=O)Nc3ccnc(N4C(=O)CNC[C@@H]4C)c3)O[C@@](C)(C(F)(F)F)[C@H]2C)ccc(F)c1F [Compound 479, (2R,3S,4S,5R)-3-(3,4-difluoro-2-methoxyphenyl)-4,5-dimethyl-N-(2-((S)-2-methyl-6-oxopiperazin-1-yl)pyridin-4-yl)-5-(trifluoromethyl)tetrahydrofuran-2-carboxamide]	0.01 to 0.1	–
Cc1nn(C(F)F)cc1NC(=O)[C@@H]1O[C@@](C)(C(F)(F)F)[C@@H](C)[C@H]1c1ccc(F)c(F)c1OCC1COC1 [Compound 579, (2R,3S,4S,5R)-3-(3,4-difluoro-2-(oxetan-3-ylmethoxy)phenyl)-N-(1-(difluoromethyl)-3-methyl-1H-pyrazol-4-yl)-4,5-dimethyl-5-(trifluoromethyl)tetrahydrofuran-2-carboxamide]	< 0.01	–
C[C@@H]1[C@H](c2ccc(F)c(F)c2OC(F)F)[C@@H](C(=O)Nc2ccnc(C(C)(C)O)c2)O[C@]1(C)C(F)(F)F (single isomer, unassigned) [Compound 83]	–	≥ 1
CCc1c(F)ccc([C@H]2C[C@@](C)(C(F)(F)F)O[C@@H]2C(=O)Nc2cn(S(C)(=O)=O)nc2C)c1OC (stereo in doubt) [Compound 716, rel-(2S,3R,5S)-3-(3-ethyl-4-fluoro-2-methoxyphenyl)-5-methyl-N-(3-methyl-1-(methylsulfonyl)-1H-pyrazol-4-yl)-5-(trifluoromethyl)tetrahydrofuran-2-carboxamide]	–	≥ 1
COc1c(C2C(C(=O)Nc3ccnc(C(C)(C)O)c3)OC(C)(C(F)(F)F)C2C)ccc(F)c1F (single isomer, unassigned) [Compound 47, 3-(3,4-difluoro-2-methoxy-phenyl)-N-[2-(1-hydroxy-1-methyl-ethyl)-4-pyridyl]-4,5-dimethyl-5-(trifluoromethyl)tetrahydrofuran-2-carboxamide]	≥ 1	–
CC(C)Oc1c([C@@H]2[C@@H](C(=O)Nc3ccnc(S(C)(=N)=O)c3)O[C@](C)(C(F)(F)F)[C@@H]2C)ccc(F)c1F (single isomer, unassigned) [Compound 117]	0.1 to 1	–
C[C@H]1[C@@H](c2ccc(F)c(F)c2OCCN2CC3(COC3)C2)[C@H](C(=O)Nc2ccc3nncn3c2)O[C@@]1(C)C(F)(F)F [Compound 620, (2R,3S,4S,5R)-3-(2-(2-(2-oxa-6-azaspiro[3.3]heptan-6-yl)ethoxy)-3,4-difluorophenyl)-N-([1,2,4]triazolo[4,3-a]pyridin-6-yl)-4,5-dimethyl-5-(trifluoromethyl)tetrahydrofuran-2-carboxamide]	0.01 to 0.1	–
COc1c([C@H]2[C@H](C(=O)Nc3ccn4c(C)ncc4c3)O[C@@](C)(C(F)(F)F)[C@H]2C)ccc(F)c1F [Compound 315, (2R,3S,4S,5R)-3-(3,4-difluoro-2-methoxyphenyl)-4,5-dimethyl-N-(3-methylimidazo[1,5-a]pyridin-7-yl)-5-(trifluoromethyl)-tetrahydrofuran-2-carboxamide]	< 0.01	–
COc1c([C@H]2[C@H](C(=O)Nc3ncn(C)c3C)O[C@@](C)(C(F)(F)F)[C@H]2C)ccc(F)c1F [Compound 322, (2R,3S,4S,5R)-3-(3,4-difluoro-2-methoxyphenyl)-N-(1,5-dimethyl-1H-imidazol-4-yl)-4,5-dimethyl-5-(trifluoromethyl)-tetrahydrofuran-2-carboxamide]	≥ 1	–
COc1c([C@H]2[C@H](C(=O)NCC3(c4ccccc4)CC3)O[C@@](C)(C(F)(F)F)[C@H]2C)ccc(F)c1F [Compound 305, (2R,3S,4S,5R)-3-(3,4-difluoro-2-methoxyphenyl)-4,5-dimethyl-N-((1-phenylcyclopropyl)methyl)-5-(trifluoromethyl)tetrahydrofuran-2-carboxamide]	≥ 1	–
CNC(COC)c1cc(NC(=O)[C@@H]2O[C@@](C)(C(F)(F)F)[C@@H](C)[C@H]2c2ccc(F)c(F)c2OC)ccn1 (single isomer, unassigned) [Compound 412, rel-(2R*,3S*,4S*,5R*)-3-(3,4-difluoro-2-methoxyphenyl)-N-(2-(2-methoxy-1-(methylamino)ethyl)-pyridin-4-yl)-4,5-dimethyl-5-(trifluoromethyl)-tetrahydrofuran-2-carboxamide]	< 0.01	–
C[C@H]1[C@@H](c2ccc(F)c(F)c2OCCO)[C@H](C(=O)Nc2cncnc2)O[C@@]1(C)C(F)(F)F [Compound 539, (2R,3S,4S,5R)-3-(3,4-difluoro-2-(2-hydroxyethoxy)phenyl)-4,5-dimethyl-N-(pyrimidin-5-yl)-5-(trifluoromethyl)tetrahydrofuran-2-carboxamide]	0.01 to 0.1	–
COc1c([C@H]2[C@H](C(=O)Nc3ccnc(N4C[C@H](C)NCC4=O)c3)O[C@@](C)(C(F)(F)F)[C@H]2C)ccc(F)c1F [Compound 478, (2R,3S,4S,5R)-3-(3,4-difluoro-2-methoxyphenyl)-4,5-dimethyl-N-(2-((S)-5-methyl-2-oxopiperazin-1-yl)pyridin-4-yl)-5-(trifluoromethyl)tetrahydrofuran-2-carboxamide]	0.01 to 0.1	–
COc1c([C@H]2[C@H](C(=O)Nc3cc(C4(N(C)C)COC4)ncc3F)O[C@@](C)(C(F)(F)F)[C@H]2C)ccc(F)c1F [Compound 363, (2R,3S,4S,5R)-3-(3,4-difluoro-2-methoxyphenyl)-N-(2-(3-(dimethylamino)oxetan-3-yl)-5-fluoropyridin-4-yl)-4,5-dimethyl-5-(trifluoromethyl)tetrahydrofuran-2-carboxamide]	0.01 to 0.1	–
